Assay results from US10981953B2, “Method for promoting expression of calreticulin, and synthetic peptide for use in method for promoting expression of calreticulin” (TOAGOSEI CO., LTD., priority 2013, dated 2021).

Assays:
[1] = system: BXM14 cells, a cultured cell line of mouse ES cells; experiment: Calreticulin expression-promoting activity in ES cells, immunofluorescent antibody technique (Example 4); format: cell-based; conditions: mouse ES cells BXM14, peptide 50 μM, 3 days culture, confocal laser microscopy
Description: The calreticulin expression-promoting activity of the Samples 1 to 12 obtained in Example 1 was investigated. BXM14 cells, a cultured cell line of mouse ES cells (hereunder sometimes called “BXM14”), were used as the test cells. The details of the evaluation test were as follows.
The sample ES cells (BXM14) were seeded to a cell density of about 1×10^4 cells per well on 4-well slides. Using DMEM medium (Wako Pure Chemical, Cat No. 043-30085) containing 15% Knockout™ Serum Replacement (hereunder sometimes called “KSR”; Life Technologies, Cat No. 10828), 0.1 mM Non-essential Amino Acids Solution (hereunder sometimes called “NEAA”; Wako Pure Chemical, Cat No. 139-15651), 0.1 mM 2-mercaptoethanol (Sigma-Aldrich, Cat No. M7522) and 1000 units/mL of StemSure™ LIF, Mouse, recombinant, Solution (hereunder sometimes called “mLIF”; Wako Pure Chemical, Cat No. 199-116051), the cells were cultured overnight in an incubator under conditions of 5% CO2, 37° C. The DMEM medium containing KSR, NEAA, 2-mercaptoethanol and mLIF is also called simply “ES DMEM medium”. […]
(§1) These figures (images) are fluorescence micrographs examining calreticulin expression in each test group, and each combines (merges) a fluorescent image showing results for calreticulin expression in ES cells as measured by the immunofluorescent antibody technique with an image showing nuclear staining by DAPI.

[2] = system: iPS cells (clone name 201B2); experiment: Calreticulin expression-promoting activity in iPS cells, immunofluorescent antibody technique (Example 3); format: cell-based; conditions: human iPS cells 201B2, peptide 10 μM, 5 days culture, confocal laser microscopy
Description: The calreticulin expression-promoting activity of the Samples 1 to 12 obtained in Example 1 was investigated. iPS cells (clone name 201B2, sometimes called simply 201B2 below) established from human fibroblasts were used as the test cells (source: Takahashi K et al., Cell, 131, 861-872 (2007)). These iPS cells were supplied by the Center for iPS Cell Research and Application, Kyoto University.
The test iPS cells (201B2) were seeded to a cell density of about 1×10^4 cells per well on matrigel-coated 8-well slides. Using mTeSR™ 1 medium (Stemcell Technologies) as the medium, the cells were cultured overnight in an incubator under conditions of 5% CO2, 37° C. Following this overnight culture, fresh mTeSR™ medium containing the peptides of Samples 1 to 12 in an amount yielding a peptide concentration of 10 μM was substituted, and the cells were further cultured for 5 days under the same conditions. Every day during this 5-day culture period, the medium was replaced with mTeSR™ 1 medium containing the peptides of Samples 1 to 12 in an amount yielding a peptide concentration of 10 μM. A peptide-free group was established as a control.
After completion of this culture, calreticulin expression in each test group was investigated by the immunofluorescent antibody technique (fluorescent immunostaining) using an anti-calreticulin antibody as in Example 2 except that a mixed solution of 1 vol. methanol and 1 vol. acetone (methanol:acetone=1:1 solution) was used to fix the cells, and the final concentration of the primary antibody was adjusted to 4×10^−3 mg/mL.
as §1, with “figures” for “figures (images)”, “iPS” for “ES”

[3] = system: HeLaS3 cells; experiment: Calreticulin expression-promoting activity in tumor cells, immunofluorescent antibody technique (Example 2); format: cell-based, human; conditions: peptide 10 μM, 5 days culture, confocal laser microscopy
Source text: The calreticulin expression-promoting activity of the peptides of the Samples 1 to 12 obtained in Example 1 above was investigated. The sample cells were HeLaS3 cells (ATCC CCL2.2), a cultured cell line derived from human cervical cancer. These HeLaS3 cells (ATCC CCL2.2) are known as a genomically unstable cultured cell line, which has been confirmed to have multiple chromosome duplications or in other words chromosomal abnormalities (karyotypic abnormalities). The details of the evaluation test are as follows.
HeLaS3 cells were seeded on 8-well slides to a cell density of about 1×10^3 cells per well. […]
A diluted primary antibody solution comprising an anti-calreticulin monoclonal [FMC75] antibody (from mouse, Abcam, Cat. No. ab22683, Lot No. GR56669-4) as the primary antibody prepared with 1% BSA/PBS (−) (PBS (−) containing 1% BSA) to a final concentration of 2.5×10^−3 mg/mL was added to the culture containers of the HeLaS3 cells, and left overnight at 4° C. […] This was then sealed with a cover glass together with an enclosed liquid containing DAPI (4′,6-diamidino-2-phenylindole) (Life Technologies), and fluorescence was observed by confocal laser microscopy. […]

Row | Sequence | fluorescence of the fluorescent label indicating calreticulin (expressed amount of calreticulin) compared with the peptide-free group and Sample 12 [2] | further results
1 | CRAKAGDPC [Sample 1] | – | fluorescence of the fluorescent label indicating calreticulin (amount of calreticulin expression) compared with the peptide-free group and Sample 12 [1]: stronger fluorescence
2 | KKRTLRKNDRKKR CRAKAGDPC (KKRTLRKNDRKKRCRAKAGDPC) [Sample 9] | stronger fluorescence | –
3 | KKRTLRKNDRKKR GPRPPSLEC (KKRTLRKNDRKKRGPRPPSLEC) [Sample 11] | strong fluorescence | –
4 | KKRTLRKNDRKKR NPGASF (KKRTLRKNDRKKRNPGASF) [Sample 10] | strong fluorescence | –
5 | LAARAVRFSEKV [Sample 12] | – | fluorescence of the fluorescent label indicating calreticulin (expressed amount of calreticulin) compared with the peptide-free group [3]: almost no fluorescence was detected
